The results in this text go back to ChEMBL document CHEMBL1146224, “Design, synthesis, and characterization of novel iron chelators: structure-activity relationships of the 2-benzoylpyridine thiosemicarbazone series and their 3-nitrobenzoyl analogues as potent antitumor agents” (J Med Chem, 2007).

pIC50: −log10 of the molar value.

Data set [1] deals with SK-N-MC. Description: cells. As to conditions: Homo sapiens, 72 h.
Description: Antiproliferative activity against human SK-N-MC cells after 72 hrs by MTT assay
A short description of data set [2]: Partition coefficient, log P of the compound. The following applies: octanol/water. The data set is classed as physicochemical.
For the next data set, the system named is MRC5. Description: Antiproliferative activity against human MRC5 cells after 72 hrs by MTT assay. The data set is classed as cell-based. As to conditions: MRC5, 72 h. A general note: Tetrazolium dyes change colour on reduction, which living cells bring about.
Data set [3] concerns SK-N-MC. Description: Effect on iron release in SK-N-MC cells. The data set is classed as functional, Homo sapiens.
For data set [4], the system named is SK-N-MC. Put plainly: Inhibition of iron uptake from transferrin in SK-N-MC cells at 50 uM relative to control. On the set-up: scale not given: the % may be the effect or the level left. The data set is classed as functional, Homo sapiens.

In general, pIC50 refers to −log10 of the IC50, conventionally taken in molar units. What is called logP is the decadic logarithm of the partition coefficient of the neutral form, usually between octanol and water. For `CN(C)C(=S)N/N=C(\c1ccccc1)c1ccccn1`, the negative logarithm of the IC50 (pIC50) in the data set on SK-N-MC [1] was 8.40; with MRC5, < 5.20. In data set [2], this compound yielded a logP of 1.29.

In the data set with SK-N-MC [3], `NC(=S)N/N=C(\c1ccccc1)c1ccccn1` showed an Activity of 23%. Also, the pIC50 with SK-N-MC [1] was 5.33. The logP in data set [2] turned out to be 1.92.

With `CNC(=S)N/N=C(\c1ccccc1)c1ccccn1`, the pIC50 was 8.40 in the data set with SK-N-MC [1] and < 5.20 in the data set with MRC5. For the same compound, the logP in data set [2] came out at 0.74.

On to `CN(C)C(=S)NN=C(c1ccccn1)c1ccccn1`, for which the pIC50 in the data set with SK-N-MC [1] is 9.00.

The compound `O=C(N/N=C/c1c(O)ccc2ccccc12)c1ccncc1` showed a pIC50 in the data set with SK-N-MC [1] of 6.15. In addition, the Activity in the data set on SK-N-MC [4] stood at 9%.

Consider `NC(=S)N/N=C(\c1cccc([N+](=O)[O-])c1)c1ccccn1`, for which the results for the Activity in the data set with SK-N-MC [3] and in the data set with SK-N-MC [4] were 43% and 7%, respectively. In the data set on SK-N-MC [1], this compound showed a pIC50 of 5.42. This compound came in with a logP in data set [2] of 1.9.

For the compound `CNC(=S)N/N=C(\c1cccc([N+](=O)[O-])c1)c1ccccn1`, the pIC50 in the data set on SK-N-MC [1] was 6.89. The compound also displayed an Activity in the data set on SK-N-MC [4] of 8%. For the same compound, the logP in data set [2] was 2.14.

Consider `CCNC(=S)N/N=C(\c1cccc([N+](=O)[O-])c1)c1ccccn1`, for which the pIC50 with SK-N-MC [1] was 7.85; in the data set on MRC5, 5.64. Also, in data set [2], the lipophilicity (logP) came out at 2.53.

`C=CCNC(=S)N/N=C(\c1ccccc1)c1ccccn1`: the pIC50 in the data set with SK-N-MC [1] was 8.40; with MRC5, < 5.20. Further, the logP in data set [2] came out at 2.69.

Regarding `C=CCNC(=S)N/N=C(\c1cccc([N+](=O)[O-])c1)c1ccccn1`, the figures for the pIC50 in the data set with SK-N-MC [1] and with MRC5 were 7.89 and 5.62, respectively. The compound also returned an Activity with SK-N-MC [4] of 11%. The compound further returned a logP in data set [2] of 1.7.

Consider `S=C(N/N=C(\c1ccccc1)c1ccccn1)Nc1ccccc1`, for which the pIC50 was 8.30 in the data set on SK-N-MC [1] and 5.73 in the data set with MRC5. For the same compound, the log partition coefficient (logP) in data set [2] came to 1.92.

For `CCNC(=S)N/N=C(\c1ccccc1)c1ccccn1`, the negative-log IC50 (pIC50) in the data set on SK-N-MC [1] is 8.70; in the data set on MRC5, < 5.20. The same compound had a logP in data set [2] of 4.01.

In the data set with SK-N-MC [3], `CC(=O)N(O)CCCCCNC(=O)CCC(=O)N(O)CCCCCNC(=O)CCC(=O)N(O)CCCCCN` [DEFEROXAMINE] showed an Activity of 7%. In addition, the pIC50 in the data set with SK-N-MC [1] was 5.35.

For `Cc1ncc(CO)c(/C=N/NC(=O)c2ccncc2)c1O` [PYRIDOXAL ISONICOTINOYL HYDRAZONE], the Activity in the data set on SK-N-MC [4] worked out at 21%.

In turn, `NC(=S)N/N=C/c1ncccc1N` [TRIAPINE] showed a pIC50 with SK-N-MC [1] of 6.59.
